{
  "source": "patent US20180221438A1",
  "about": "“MODULATING URACIL-DNA GLYCOSYLASE AND USES THEREOF” (Adaerata Limited Partnership, priority 2015, published 2018)",
  "assay_type_in_all_cases": "cell-based",
  "key": {"[1]": {"tested_on": "B cells from wt or UNG−/− mice", "assay": "B cell expansion by cell count after DidB treatment", "conditions": "cells counted 48 h post-treatment, LPS and IL-4", "description": "(§1) B cells were purified from wt or UNG−/− mice, and cultured directly with LPS and IL-4 and were counted 48 h post-treatment in order to measure B cell expansion (FIG. 14B); or after loading with the CFSE dye and cell divisions for treated cells were measured by analyzing the dilution of CFSE dye at 24 h post-treatment. Dilution of CFSE in cells is proportional to proliferation (FIGS. 14C-D).\n(§2) 24 h later, cells were treated with either DMSO or DidB."}, "[2]": {"tested_on": "Primary B cells from AID UNG double deficient mice", "conditions": "1 nM DidB, 72 h, AID-ires-GFP vs GFP alone or AIDE58A", "description": "Primary B cells were harvested from AID UNG double deficient mice and cultured with anti-CD180, IL-4 and LPS. […] 24 h post infection, cells were treated with either DMSO vehicle or 1 nM of the EEF1A inhibitor DidB. Toxicity was measured after 72 h as the % difference of GFP+ cells in the DidB-treated culture compared to DMSO control. Data from two mice are averaged, bars are SEM."}, "[3]": {"tested_on": "B cells from wt or UNG−/− mice", "assay": "B cell divisions by CFSE dilution after DidB treatment", "conditions": "Ung-deficient vs wt B cells", "description": "as §1, §2"}},
  "data": [
    {"smiles": "CC[C@H](C)[C@H]1NC(=O)[C@@H](NC(=O)[C@@H](CC(C)C)N(C)C(=O)[C@@H]2CCCN2C(=O)C(C)O)[C@@H](C)OC(=O)[C@H](Cc2ccc(OC)cc2)N(C)C(=O)[C@@H]2CCCN2C(=O)[C@H](CC(C)C)NC(=O)[C@@H](C)C(=O)[C@H](C(C)C)OC(=O)C[C@@H]1O", "note": "(stereo partly shown) [DidB, didemnin B]", "values": [
      {"measurement": "B cell expansion", "setting": "[1]", "result": "further diminishes expansion in Ung-deficient B cells"},
      {"measurement": "sensitivity to DidB (toxicity, % difference of GFP+ cells vs DMSO)", "setting": "[2]", "result": "substantially more sensitive"},
      {"measurement": "sensitivity to DidB treatment (cell divisions, CFSE)", "setting": "[3]; 24 h post-treatment", "result": "more sentitive"},
      {"measurement": "inhibition of proliferation", "setting": "[3]; dose-dependent, CFSE dilution 24 h post-treatment", "result": "more marked in Ung-deficient B cells than wt B cells"}
    ]}
  ]
}
